Twelve molecules from patent US10093630B2, “Pyrazole compounds and methods of making and using same” (ABIDE THERAPEUTICS, INC., priority 2014, dated 2018) can be followed below.

Test in all cases: In vitro competitive activity-based protein profiling (gel-based, FP-Rh or HT-01 probe)
Holding throughout (type): biochemical

One assay concerns the target T1, PLA2G7 (Mus musculus, UniProt Q60963).
T1 construct: Proteomes (mouse brain membrane fraction or cell lysates); from tissue; host or cells: mouse brain membrane fraction (or cell lysates, not specified)
T1 sequence (Q60963 22-440): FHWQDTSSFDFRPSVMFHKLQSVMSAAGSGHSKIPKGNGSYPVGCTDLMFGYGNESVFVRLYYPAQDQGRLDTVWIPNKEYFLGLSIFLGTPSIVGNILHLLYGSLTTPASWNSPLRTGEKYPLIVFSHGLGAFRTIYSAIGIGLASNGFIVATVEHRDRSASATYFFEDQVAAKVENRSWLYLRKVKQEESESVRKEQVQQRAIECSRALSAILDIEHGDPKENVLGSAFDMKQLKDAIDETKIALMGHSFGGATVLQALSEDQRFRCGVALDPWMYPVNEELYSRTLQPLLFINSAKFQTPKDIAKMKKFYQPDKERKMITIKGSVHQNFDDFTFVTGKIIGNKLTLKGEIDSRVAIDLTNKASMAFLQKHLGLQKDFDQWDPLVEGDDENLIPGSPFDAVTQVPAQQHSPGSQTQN
Conditions: for inhibition at 1 µM: 1 μM inhibitor, read-out: % Inhibition at 1 μM, D = PLA2G7; for inhibition at 10 µM: 10 μM inhibitor, read-out: % Inhibition at 10 μM, D = PLA2G7; for IC50: mouse brain membrane fraction or cell lysates, 30 min preincubation at 37° C. The gist of the method:
(§1)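 Gel-based read-out: fluorescent band intensity after SDS-PAGE reflected remaining hydrolase activity. Inhibitors were preincubated 30 min at 37° C with 1.0 mg/mL mouse brain membrane or lysate proteome before a further 30 min at 37° C with FP-Rh or HT-01 probe.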

A further assay deals with T2, MAGL (Mus musculus, UniProt O35678).
T2 construct: Proteomes (mouse brain membrane fraction or cell lysates); from tissue; host or cells: mouse brain membrane fraction (or cell lysates, not specified)
T2 sequence (O35678 1-303): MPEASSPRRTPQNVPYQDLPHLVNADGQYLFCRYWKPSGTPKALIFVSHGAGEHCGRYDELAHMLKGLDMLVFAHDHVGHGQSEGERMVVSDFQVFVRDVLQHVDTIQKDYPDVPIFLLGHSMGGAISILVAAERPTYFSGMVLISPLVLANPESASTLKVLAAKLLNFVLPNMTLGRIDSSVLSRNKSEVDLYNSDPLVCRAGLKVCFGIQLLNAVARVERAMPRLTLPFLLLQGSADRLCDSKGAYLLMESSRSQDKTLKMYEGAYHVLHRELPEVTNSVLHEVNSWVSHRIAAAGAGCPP
Particulars: for inhibition at 1 µM: 1 μM inhibitor; for inhibition at 10 µM: 10 μM inhibitor; for IC50: mouse brain membrane fraction or cell lysates, 30 min preincubation at 37° C., read-out: Mouse (IC50 value, nM) MAGL. The gist of the method: as §1

For the next assay, the target named is T3, ABHD6 (Mus musculus, UniProt Q8R2Y0).
T3 construct: Proteomes (mouse brain membrane fraction or cell lysates); from tissue; host or cells: mouse brain membrane fraction (or cell lysates, not specified)
T3 sequence (Q8R2Y0 1-336): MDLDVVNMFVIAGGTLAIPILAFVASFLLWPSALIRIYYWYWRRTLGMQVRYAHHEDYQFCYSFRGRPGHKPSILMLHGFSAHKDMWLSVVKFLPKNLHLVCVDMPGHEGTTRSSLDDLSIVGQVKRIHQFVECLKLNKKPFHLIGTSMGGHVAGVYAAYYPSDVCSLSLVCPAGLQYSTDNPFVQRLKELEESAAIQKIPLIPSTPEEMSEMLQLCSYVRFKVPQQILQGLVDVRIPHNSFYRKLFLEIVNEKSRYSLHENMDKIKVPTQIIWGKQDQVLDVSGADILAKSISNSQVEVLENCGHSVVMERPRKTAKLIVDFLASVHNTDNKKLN
Particulars: for inhibition at 1 µM: 1 μM inhibitor, read-out: % Inhibition at 1 μM, C = ABHD6; for inhibition at 10 µM: 10 μM inhibitor, read-out: % Inhibition at 10 μM, C = ABHD6; for IC50: mouse brain membrane fraction or cell lysates, 30 min preincubation at 37° C., read-out: Mouse (IC50 value, nM) ABHD6. The gist of the method: as §1

The next assay concerns the target T4, FAAH (Mus musculus, UniProt O08914).
T4 construct: Proteomes (mouse brain membrane fraction or cell lysates); from tissue; host or cells: mouse brain membrane fraction (or cell lysates, not specified)
T4 sequence (O08914 1-579): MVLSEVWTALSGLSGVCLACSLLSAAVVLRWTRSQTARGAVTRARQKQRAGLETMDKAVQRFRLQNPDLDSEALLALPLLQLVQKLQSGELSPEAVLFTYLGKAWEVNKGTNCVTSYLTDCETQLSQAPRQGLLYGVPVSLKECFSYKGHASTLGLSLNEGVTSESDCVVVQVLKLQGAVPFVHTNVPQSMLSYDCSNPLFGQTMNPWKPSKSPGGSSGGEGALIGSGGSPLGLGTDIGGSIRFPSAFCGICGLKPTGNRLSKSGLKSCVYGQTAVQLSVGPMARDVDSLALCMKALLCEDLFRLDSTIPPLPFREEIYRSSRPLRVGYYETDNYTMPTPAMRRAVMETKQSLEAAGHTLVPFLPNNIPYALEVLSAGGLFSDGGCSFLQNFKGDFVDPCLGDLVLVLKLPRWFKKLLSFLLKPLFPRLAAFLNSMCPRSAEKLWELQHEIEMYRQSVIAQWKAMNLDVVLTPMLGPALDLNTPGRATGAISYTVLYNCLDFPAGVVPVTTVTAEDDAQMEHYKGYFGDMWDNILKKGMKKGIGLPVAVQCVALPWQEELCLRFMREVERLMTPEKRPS
Conditions: for inhibition at 1 µM: 1 μM inhibitor, read-out: % Inhibition at 1 μM, B = FAAH; for inhibition at 10 µM: 10 μM inhibitor, read-out: % Inhibition at 10 μM, B = FAAH; for IC50: mouse brain membrane fraction or cell lysates, 30 min preincubation at 37° C., read-out: Mouse (IC50 value, nM) FAAH. The gist of the method: as §1

In general, inhibition refers to the percentage by which the read-out fell short of the control. Usually IC50 stands for the midpoint of a concentration-inhibition curve.

Like-named read-outs stand apart in the source and are kept apart here. Where only a bound is given, the exact number is not on record here.

Regarding `Cc1cnn(C(=O)N2CCCN(Cc3ccc(OCc4ccccc4)cc3)CC2)c1` [Example 302, (4-(4-(Benzyloxy)benzyl)-1,4-diazepan-1-yl)(4-methyl-1H-pyrazol-1-yl)methanone], the inhibition at 1 µM on PLA2G7 (gel-based competitive ABPP) was under 25%; on MAGL (gel-based competitive ABPP), 25 to 75%; on ABHD6 (gel-based competitive ABPP), under 25%; on FAAH (gel-based competitive ABPP) it was under 25%.

In the case of `N#Cc1cnn(C(=O)N2CCCC2)c1` [Example 203, 1-(Pyrrolidine-1-carbonyl)-1H-pyrazole-4-carbonitrile], the inhibition at 1 µM at PLA2G7 was under 25%; on MAGL, under 25%; on ABHD6 it was under 25%; on FAAH, over 75%. Besides, the inhibition at 10 µM at PLA2G7, at MAGL, on ABHD6 and on FAAH was over 75% throughout.

`O=C(N1CCCN(Cc2ccccc2)CC1)n1cc(Cl)cn1` [Example 191, (4-Benzyl-1,4-diazepan-1-yl)(4-chloro-1H-pyrazol-1-yl)methanone]: the inhibition at 1 µM was under 25% on PLA2G7, under 25% on MAGL, 25 to 75% on ABHD6 and over 75% at FAAH. The inhibition at 10 µM at PLA2G7 was under 25%; at MAGL, over 75%; on ABHD6 it was over 75%; at FAAH it was over 75%.

As for `O=C(N1CCN(Cc2ccc3ccccc3c2)CC1)n1cc(I)cn1` [Example 14, (4-Iodo-1H-pyrazol-1-yl)(4-(naphthalen-2-ylmethyl)piperazin-1-yl)methanone], the inhibition at 1 µM at PLA2G7, on MAGL, at ABHD6 and on FAAH was over 75% each time. The inhibition at 10 µM on PLA2G7, on MAGL, at ABHD6 and at FAAH was over 75% in each case.

Regarding `CCN(Cc1ccc(C)cc1)C(=O)n1cc(C#N)cn1` [Example 255, 4-Cyano-N-ethyl-N-(4-methylbenzyl)-1H-pyrazole-1-carboxamide], the inhibition at 1 µM at PLA2G7 (gel-based competitive ABPP) was under 25%; at MAGL (gel-based competitive ABPP), over 75%; on ABHD6 (gel-based competitive ABPP), under 25%; on FAAH (gel-based competitive ABPP), over 75%. The IC50 on PLA2G7 is over 1000 nM; at MAGL, 100 to 1000 nM; on ABHD6, over 1000 nM; at FAAH, under 100 nM.

Turning to `CC(=O)N1CCN(C(=O)n2cc(C#N)cn2)CC1` [Example 173, 1-(4-Acetylpiperazine-1-carbonyl)-1H-pyrazole-4-carbonitrile], the inhibition at 1 µM on PLA2G7 was over 75%; at MAGL it was under 25%; at ABHD6 it was under 25%; at FAAH it was under 25%. The inhibition at 10 µM at PLA2G7 was over 75%; on MAGL, 25 to 75%; at ABHD6, 25 to 75%; at FAAH, under 25%.

As to `Cc1cnn(C(=O)N2CCCN(C)CC2)c1` [Example 167, (4-Methyl-1,4-diazepan-1-yl)(4-methyl-1H-pyrazol-1-yl)methanone], the inhibition at 10 µM on PLA2G7, at MAGL, at ABHD6 and at FAAH was under 25% throughout.

On to `Cc1cnn(C(=O)N2CCN(S(C)(=O)=O)CC2)c1` [Example 162, (4-Methyl-1H-pyrazol-1-yl)(4-(methylsulfonyl)piperazin-1-yl)methanone], for which the inhibition at 1 µM at PLA2G7, at MAGL, at ABHD6 and on FAAH was under 25% in each case. The inhibition at 10 µM was over 75% at PLA2G7, under 25% on MAGL, 25 to 75% on ABHD6 and under 25% at FAAH.

As to `CC(=O)N(C)CCN(C)C(=O)n1cc(C(F)(F)F)cn1` [Example 159, N-Methyl-N-(2-(N-methylacetamido)ethyl)-4-(trifluoromethyl)-1H-pyrazole-1-carboxamide], the inhibition at 1 µM on PLA2G7, at MAGL, on ABHD6 and at FAAH was under 25% in each case. For the same molecule, the inhibition at 10 µM at PLA2G7 was over 75%; on MAGL it was under 25%; on ABHD6, over 75%; at FAAH, 25 to 75%.

On to `CN(Cc1cccc(-c2ccncc2)c1)C(=O)n1cc(-c2ccccc2)cn1` [Example 219, N-Methyl-4-phenyl-N-(3-(pyridin-4-yl)benzyl)-1H-pyrazole-1-carboxamide], for which the inhibition at 1 µM at PLA2G7, on MAGL, at ABHD6 and on FAAH was over 75% each time. The inhibition at 10 µM on PLA2G7, at MAGL, at ABHD6 and at FAAH was over 75% in each case. The IC50 on PLA2G7 is under 100 nM; at MAGL it was over 1000 nM; on ABHD6, 100 to 1000 nM; at FAAH, under 100 nM.

Turning to `O=C(O)c1cnn(C(=O)N2CCN(Cc3ccc(Cl)cc3)CC2)c1` [Example 288, 1-(4-(4-Chlorobenzyl)piperazine-1-carbonyl)-1H-pyrazole-4-carboxylic acid], the inhibition at 1 µM at PLA2G7 (gel-based competitive ABPP) is under 25%; at MAGL (gel-based competitive ABPP) it was under 25%; on ABHD6 (gel-based competitive ABPP), under 25%; on FAAH (gel-based competitive ABPP) it was 25 to 75%. Moreover, the inhibition at 10 µM on PLA2G7 (gel-based competitive ABPP) is under 25%; on MAGL (gel-based competitive ABPP), under 25%; at ABHD6 (gel-based competitive ABPP), under 25%; on FAAH (gel-based competitive ABPP), over 75%.

Regarding `CCN(Cc1ccc(OC)cc1)C(=O)n1cc(C)cn1` [Example 260, N-Ethyl-N-(4-methoxybenzyl)-4-methyl-1H-pyrazole-1-carboxamide], the inhibition at 1 µM at PLA2G7 (gel-based competitive ABPP), on MAGL (gel-based competitive ABPP), on ABHD6 (gel-based competitive ABPP) and on FAAH (gel-based competitive ABPP) was under 25% each time.
